{"source": "paper PMC4021826", "about": "“Functional characterization of a xylose transporter in Aspergillus nidulans” (Biotechnology for Biofuels, 2014)", "target": "T1, XtrD (Aspergillus nidulans, UniProt Q5BGT0)", "T1 construct": "gene ANIA_00250; full-length xtrD in modified vector pRH195 (HXT7 promoter), expressed in S. cerevisiae EBY.VW4000 lacking hexose transporters", "T1 sequence (Q5BGT0 1-547)": "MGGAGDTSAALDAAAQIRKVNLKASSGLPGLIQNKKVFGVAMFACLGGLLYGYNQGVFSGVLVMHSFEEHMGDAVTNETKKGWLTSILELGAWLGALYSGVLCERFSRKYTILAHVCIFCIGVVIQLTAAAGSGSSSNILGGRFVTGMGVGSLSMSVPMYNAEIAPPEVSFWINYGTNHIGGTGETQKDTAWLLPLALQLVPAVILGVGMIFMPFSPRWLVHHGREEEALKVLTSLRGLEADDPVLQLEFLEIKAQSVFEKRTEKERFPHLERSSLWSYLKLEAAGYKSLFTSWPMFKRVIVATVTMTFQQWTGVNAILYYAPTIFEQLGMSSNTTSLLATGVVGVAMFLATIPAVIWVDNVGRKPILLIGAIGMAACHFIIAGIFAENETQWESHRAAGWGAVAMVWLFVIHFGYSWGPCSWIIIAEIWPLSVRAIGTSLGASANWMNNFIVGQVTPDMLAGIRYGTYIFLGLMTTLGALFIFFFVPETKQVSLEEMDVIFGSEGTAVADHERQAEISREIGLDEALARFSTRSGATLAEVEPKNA", "assay": "competition of […]glucose uptake in S. cerevisiae EBY.VW4000 expressing xtrD", "assay_type": "cell-based", "details": "10- and 20-fold excess unlabeled xylose over glucose, respectively; 5 s uptake, 30 °C", "data": [{"smiles": "OC1OC[C@@H](O)[C@H](O)[C@H]1O", "note": "(stereo partly shown) [xylose]", "values": [{"measurement": "% inhibition of radiolabeled glucose transport at 10- and 20-fold excess", "result": "90% to 100%"}]}]}
